Results on 100 compounds are retold here after PubChem BioAssay AID1033 (Sanford-Burnham Center for Chemical Genomics, 2008).

Structures are written as SMILES. The source made the active and inactive calls. How the calls were made is not given here. A value given as a limit tells only on which side of the number the result lay.

The test has as its target Chaperone protein DnaK (Escherichia coli (strain K12)) (UniProt P0A6Y8). The test can be described thus: E. coli DnaK SBD ligand binding – biophysical, NMR, chaperone (AID 1033). Particulars: Purified DnaK SBD.

Chaperone protein DnaK (Escherichia coli (strain K12)), sequence (P0A6Y8 whole entry, looked up): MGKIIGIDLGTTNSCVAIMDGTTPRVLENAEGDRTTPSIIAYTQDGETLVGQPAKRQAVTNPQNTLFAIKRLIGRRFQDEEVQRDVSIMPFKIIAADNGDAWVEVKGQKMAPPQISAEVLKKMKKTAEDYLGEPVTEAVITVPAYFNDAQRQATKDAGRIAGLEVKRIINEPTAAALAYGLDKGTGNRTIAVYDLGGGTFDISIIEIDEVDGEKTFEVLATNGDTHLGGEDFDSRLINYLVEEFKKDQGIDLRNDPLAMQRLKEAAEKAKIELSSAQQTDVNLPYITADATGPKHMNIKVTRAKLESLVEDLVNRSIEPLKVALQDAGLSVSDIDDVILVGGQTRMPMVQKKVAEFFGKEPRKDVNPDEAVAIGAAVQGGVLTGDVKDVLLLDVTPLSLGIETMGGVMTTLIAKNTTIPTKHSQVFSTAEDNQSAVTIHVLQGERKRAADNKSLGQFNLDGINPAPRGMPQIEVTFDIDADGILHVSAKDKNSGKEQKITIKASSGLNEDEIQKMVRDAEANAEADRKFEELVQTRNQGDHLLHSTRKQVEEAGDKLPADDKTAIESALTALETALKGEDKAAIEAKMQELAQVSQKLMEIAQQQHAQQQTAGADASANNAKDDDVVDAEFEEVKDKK

For the compound `S=C(Nc1ccccc1)Nc1nncs1`, the Kd is > 4 mM (inactive). With `OCCNC(=S)Nc1ccccc1`, the Kd is > 4 mM (inactive).

As for `O=C(Nc1cccnc1)c1ccc(Br)s1`, the Kd was > 4 mM (inactive). `O=c1cnnc(NCc2ccc(F)cc2)[nH]1`: the Kd was > 4 mM (inactive).

Consider `O=C(NN1C(=O)c2ccccc2C1=O)c1cccs1`, for which the Kd was > 4 mM (inactive). Turning to `CN(C)C(=O)CSc1cccc2cccnc12`, the Kd is > 4 mM (inactive). Turning to `COc1cc2c(c(OC)c1OC)-c1ccc(O)c(=O)cc1[C@@H](NC(C)=O)CC2`, the Kd is > 4 mM (inactive). As to `CC1(C)CC[C@]2(C)CC[C@]3(C)C(=CCC4[C@@]5(C)CC[C@H](O)C(C)(C)C5CC[C@]43C)C2C1` (stereo not given in full), the Kd was > 4 mM (inactive). Turning to `Cc1c(C)[n+](=O)c(-c2cccs2)c(C)n1[O-]`, the Kd is > 4 mM (inactive).

Regarding `Cc1nc2ccc(F)cc2cc1C(=O)NCc1ccco1`, the Kd is > 4 mM (inactive). On to `OCc1ccc(-n2cncn2)cc1`, for which the Kd is > 4 mM (inactive). As to `O=C1CSC(c2ccccc2)N1` (stereo not given), the Kd is > 4 mM (inactive). As to `CCc1cc2c(SCC(=O)O)ncnc2s1`, the Kd is > 4 mM (inactive). Regarding `CC1=CC2C(CC1=O)C(C)=CCC2C(C)C` (stereo not given), the Kd is > 4 mM (inactive). With `CC1(C)SCC(C(=O)O)N1C=O` (stereo not given), the Kd was > 4 mM (inactive). On to `CC(C)n1c(-c2ccncc2)n[nH]c1=S`, for which the Kd was > 4 mM (inactive). Regarding `NCc1csc(-c2cccs2)n1`, the Kd is > 4 mM (inactive).

Consider `Cc1noc(C)c1C(=O)N1CCC2(CC1)OCCO2`, for which the Kd is > 4 mM (inactive). As for `Cc1cc(=O)[nH]c(NCC(=O)O)n1`, the Kd was > 4 mM (inactive). On to `COc1cc(N)ncn1`, for which the Kd was > 4 mM (inactive). Regarding `Cc1nc(-c2cccc(-c3noc(C)n3)c2)no1`, the Kd is > 4 mM (inactive). For `c1cncc(-c2nnc(-c3cccnc3)nn2)c1`, the Kd was > 4 mM (inactive).

On to `O=C1CN(C(=O)c2ccccc2F)c2ccccc2N1`, for which the Kd is > 4 mM (inactive). In the case of `COC(=O)Cc1cc(=O)n(-c2nc3ccccc3s2)[nH]1`, the Kd was > 4 mM (inactive). The same measure for `CC(=O)Nc1nc(-c2cccs2)cs1`: > 4 mM (inactive). Consider `COc1cccc(C(=O)Nc2c(C)n[nH]c2C)c1`, for which the Kd was > 4 mM (inactive). In the case of `C[C@H]1OC(O[C@H]2[C@@H](O)CC(O[C@H]3[C@@H](O)C[C@H](O[C@H]4CC[C@]5(C)C6CC[C@]7(C)[C@@H](C8=CC(=O)OC8)[C@@H](O)C[C@]7(O)[C@@H]6CC[C@@H]5C4)O[C@@H]3C)O[C@@H]2C)C[C@H](O)C1O` (stereo not given in full), the Kd is > 4 mM (inactive). Take `Cc1cccc(C)c1NC(=O)/C=C/C(=O)O`: the Kd is > 4 mM (inactive). Then `Cc1cc(=O)c2c(O)cc(O)c(C)c2o1`, with > 4 mM (inactive); and `NC(=O)c1ccc(N2CCCCC2)c(N)c1`, with > 4 mM (inactive).

`Cc1ccc2c(C)c(C(=O)Nc3nnc(C)s3)oc2c1`: the Kd was > 4 mM (inactive). Then `COCC(=O)Nc1cccc(Br)c1`, with > 4 mM (inactive). Take `NC(=O)c1ccc(-c2ccccn2)s1`: the Kd was > 4 mM (inactive). Then `Cc1ccc(Nc2nc(N)nc(CC#N)n2)cc1`, with > 4 mM (inactive); and `CNC(=S)N1CCN=C1Nc1nc(C)cc(C)n1`, with > 4 mM (inactive).

Consider `Cc1nn2c(nc1=O)SCC(c1ccccc1)=N2`, for which the Kd was > 4 mM (inactive). The same measure for `CC(=O)Oc1cc(OC(C)=O)c2c(c1)O[C@H](c1ccc(OC(C)=O)c(OC(C)=O)c1)[C@H](OC(C)=O)C2`: > 4 mM (inactive). The same measure for `Nc1ccc2[nH]ccc2c1`: > 4 mM (inactive). Regarding `O=C(O)c1cccc2c1OCCO2`, the Kd was > 4 mM (inactive).

On to `COc1ccc(C(N)=O)cc1N`, for which the Kd was > 4 mM (inactive). As for `CC(=O)c1ccc[nH]1`, the Kd was > 4 mM (inactive). As for `CC1(NC(=O)NCc2ccccc2)CCS(=O)(=O)C1` (stereo not given), the Kd is > 4 mM (inactive). As to `C[C@]12CCC3C(CC[C@H]4C[C@@H](O)CC[C@]34C)C1CCC2=O` (stereo not given in full), the Kd was > 4 mM (inactive). On to `CC(=O)Nc1ccn(-c2ccccc2)n1`, for which the Kd was > 4 mM (inactive). Then `CC1(C)Cc2cccc(CO)c2O1`, with > 4 mM (inactive). In the case of `Oc1cc(O)c2c(c1)O[C@H](c1cc(O)c(O)c(O)c1)[C@H](O)C2`, the Kd is > 4 mM (inactive).

As to `CC1(C)C2CC(=O)[C@]3(C)C(CC[C@@]4(C)[C@H](c5ccoc5)OC(=O)C5OC543)[C@@]2(C)[C@@H](O)C[C@H]1O` (stereo not given in full), the Kd was > 4 mM (inactive). For the compound `Cn1cccc1C(=O)NS(=O)(=O)c1ccccc1Cl`, the Kd was > 4 mM (inactive). Turning to `Cc1nnc(NCc2cccnc2)[nH]c1=O`, the Kd was > 4 mM (inactive). Then `O=C(Nn1cnnc1)c1ccccc1Cl`, with > 4 mM (inactive); and `Cc1ccccc1-n1c(N)cc(=O)[nH]c1=S`, with > 4 mM (inactive). Take `CN=C(c1ccc([N+](=O)[O-])cc1)N(C)C`: the Kd was > 4 mM (inactive). Turning to `O=c1c2ccccc2ncn1C1CCCCC1`, the Kd is > 4 mM (inactive). Regarding `O=C(O)c1ccc(N2CCOCC2)cc1`, the Kd is > 4 mM (inactive).

As for `OC1CCN(C(=S)NC2CC2)CC1`, the Kd was > 4 mM (inactive). With `COc1ccc(NS(=O)(=O)c2ccc(N)cc2)nn1`, the Kd is > 4 mM (inactive). Then `Cc1onc(-c2c(Cl)cccc2Cl)c1C(N)=O`, with > 4 mM (inactive).

`Oc1ccccc1C(=S)N1CCCCCC1`: the Kd is > 4 mM (inactive).

As for `CNS(=O)(=O)c1ccc2[nH]c(=O)[nH]c2c1`, the Kd was > 4 mM (inactive). The same measure for `O=c1[nH]cc(Nc2ccccc2)c(=O)[nH]1`: > 4 mM (inactive); for `Cc1cccnc1NC1=NCC(C)S1` (stereo not given): > 4 mM (inactive); for `COc1ccc(C(C)=O)c(O)c1`: > 4 mM (inactive). The same measure for `Cc1nc2ccc(C(=O)N3CCSCC3)cc2s1`: > 4 mM (inactive). Consider `CCC(=O)Nc1cc(C(C)C)c(O)cc1C`, for which the Kd was > 4 mM (inactive). Turning to `Nc1cc(C(=O)N2CCCC2)cc(C(=O)N2CCCC2)c1`, the Kd was > 4 mM (inactive).

As for `O=C(CSc1cccc2cccnc12)N1CCCC1`, the Kd is > 4 mM (inactive). `CCNC(=O)CC1Nc2ccccc2NC1=O` (stereo not given): the Kd was > 4 mM (inactive). For `CN1CCCCC1c1ccc(-c2cccnc2)nc1` (stereo not given), the Kd was > 4 mM (inactive). Then `CC(=O)O[C@@H]1CC2C(C)(C)[C@H](O)C=C[C@]2(C)C2CC[C@]3(C)C(=CC(=O)O[C@H]3c3ccoc3)[C@@]21C` (stereo not given in full), with > 4 mM (inactive); and `Cc1ccc(CN2C3=NC(=O)CN3c3ccccc32)cc1`, with > 4 mM (inactive).

Turning to `O=C(O)c1ccc(Oc2ccccc2)nc1`, the Kd was > 4 mM (inactive). `COc1cc(O)c2c(=O)c(O)c(-c3ccc(O)c(O)c3)oc2c1`: the Kd is > 4 mM (inactive). Consider `CC(=O)Oc1ccc(O)cc1`, for which the Kd was > 4 mM (inactive).

In the case of `COc1c(O)cc2c(-c3ccccc3)cc(=O)oc2c1OC`, the Kd was > 4 mM (inactive). As to `C=CCSc1[nH]c(=O)cc(C)c1C(N)=O`, the Kd is > 4 mM (inactive). Regarding `O=C1CCCN1C(=O)c1ccc(F)cc1`, the Kd was > 4 mM (inactive).

Take `Cc1cc2nc3c(=O)[nH]c(=O)nc-3n(CC(O)C(O)C(O)CO)c2cc1C` (stereo not given): the Kd was > 4 mM (inactive). For the compound `Nc1c(N2CCCC2)cnn(-c2ccccc2)c1=O`, the Kd was > 4 mM (inactive). Then `Cc1cc(C)n2nc(N)nc2n1`, with > 4 mM (inactive). For the compound `CN1CCN(C(=O)c2ccccc2N)CC1`, the Kd is > 4 mM (inactive). Then `COC(=O)c1c(OC)cc2c(c1C)Oc1c(Cl)c(OC(C)=O)c(Cl)c(C)c1C(=O)O2`, with > 4 mM (inactive); and `OC1CNCc2cc3c(cc21)OCCO3` (stereo not given), with > 4 mM (inactive); and `Nc1nc(-c2ccc(F)c(F)c2)cs1`, with > 4 mM (inactive). Regarding `O=C(NN1C(=O)CSC1=S)c1ccccc1`, the Kd is > 4 mM (inactive).

Turning to `COC(=O)C[C@H]1C2(C)CC34OC5(C)O[C@@]6([C@H](OC)C(OC(=O)C(C)C)[C@]7(C)C(/C(=C(/OC)C(C)C)C(=O)O[C@H]7c7ccoc7)[C@@]6(O5)[C@H](OC)[C@@]3(OC)C2OC(C)=O)[C@]14C` (stereo not given in full), the Kd was > 4 mM (inactive). For the compound `CCOC(=O)Nc1ccc2c(C)cc(=O)oc2c1`, the Kd was > 4 mM (inactive). Consider `COC(=O)C1=CCCN(C)C1`, for which the Kd is > 4 mM (inactive). On to `CCCCn1c(=O)cc(O)c2ccccc21`, for which the Kd was > 4 mM (inactive). Turning to `C=CCCCCCCCCCCCC(O)CC(O)CO` (stereo not given) (tested in a mixture with another compound), the Kd was > 4 mM (inactive). Turning to `C[C@@H]1CC[C@]2(C(=O)O)CC[C@]3(C)C(=CCC4[C@@]5(C)CC[C@H](O)C(C)(C)C5CC[C@]43C)C2[C@H]1C` (stereo not given in full), the Kd is > 4 mM (inactive). As for `OCC1COc2ccccc2C1` (stereo not given), the Kd was > 4 mM (inactive).

Take `CC(=O)N1CN(C(C)=O)CN(C(C)=O)C1`: the Kd is > 4 mM (inactive). As to `O=c1[nH]nc(Cc2ccncc2)c2ccccc12`, the Kd is > 4 mM (inactive).

Take `Cc1noc(C)c1C(=O)N1CCc2ccccc21`: the Kd is > 4 mM (inactive). As for `CN(C(=O)c1cc2cccnc2n(C)c1=O)c1ccccc1`, the Kd is > 4 mM (inactive). Consider `CS(=O)(=O)N1CCN(C(=O)Cc2cccs2)CC1`, for which the Kd was > 4 mM (inactive). As to `Clc1ccc(-c2noc(CN3CCCC3)n2)cc1`, the Kd is > 4 mM (inactive). As to `CC(=O)Oc1cccc2ccc(=O)[nH]c12`, the Kd is > 4 mM (inactive). Take `CC1=C(C(N)=O)C(c2ccco2)C(C(N)=O)=C(C)N1`: the Kd was > 4 mM (inactive). In the case of `COc1ccc(C(=O)NNC(=S)NC(C)=O)cc1`, the Kd was > 4 mM (inactive).

The Kd is a measure of binding affinity in units of concentration.
